Experiment [1] deals with T1, Mitogen-activated protein kinase kinase kinase 5 (Homo sapiens) (UniProt Q99683).
T1 sequence (whole entry): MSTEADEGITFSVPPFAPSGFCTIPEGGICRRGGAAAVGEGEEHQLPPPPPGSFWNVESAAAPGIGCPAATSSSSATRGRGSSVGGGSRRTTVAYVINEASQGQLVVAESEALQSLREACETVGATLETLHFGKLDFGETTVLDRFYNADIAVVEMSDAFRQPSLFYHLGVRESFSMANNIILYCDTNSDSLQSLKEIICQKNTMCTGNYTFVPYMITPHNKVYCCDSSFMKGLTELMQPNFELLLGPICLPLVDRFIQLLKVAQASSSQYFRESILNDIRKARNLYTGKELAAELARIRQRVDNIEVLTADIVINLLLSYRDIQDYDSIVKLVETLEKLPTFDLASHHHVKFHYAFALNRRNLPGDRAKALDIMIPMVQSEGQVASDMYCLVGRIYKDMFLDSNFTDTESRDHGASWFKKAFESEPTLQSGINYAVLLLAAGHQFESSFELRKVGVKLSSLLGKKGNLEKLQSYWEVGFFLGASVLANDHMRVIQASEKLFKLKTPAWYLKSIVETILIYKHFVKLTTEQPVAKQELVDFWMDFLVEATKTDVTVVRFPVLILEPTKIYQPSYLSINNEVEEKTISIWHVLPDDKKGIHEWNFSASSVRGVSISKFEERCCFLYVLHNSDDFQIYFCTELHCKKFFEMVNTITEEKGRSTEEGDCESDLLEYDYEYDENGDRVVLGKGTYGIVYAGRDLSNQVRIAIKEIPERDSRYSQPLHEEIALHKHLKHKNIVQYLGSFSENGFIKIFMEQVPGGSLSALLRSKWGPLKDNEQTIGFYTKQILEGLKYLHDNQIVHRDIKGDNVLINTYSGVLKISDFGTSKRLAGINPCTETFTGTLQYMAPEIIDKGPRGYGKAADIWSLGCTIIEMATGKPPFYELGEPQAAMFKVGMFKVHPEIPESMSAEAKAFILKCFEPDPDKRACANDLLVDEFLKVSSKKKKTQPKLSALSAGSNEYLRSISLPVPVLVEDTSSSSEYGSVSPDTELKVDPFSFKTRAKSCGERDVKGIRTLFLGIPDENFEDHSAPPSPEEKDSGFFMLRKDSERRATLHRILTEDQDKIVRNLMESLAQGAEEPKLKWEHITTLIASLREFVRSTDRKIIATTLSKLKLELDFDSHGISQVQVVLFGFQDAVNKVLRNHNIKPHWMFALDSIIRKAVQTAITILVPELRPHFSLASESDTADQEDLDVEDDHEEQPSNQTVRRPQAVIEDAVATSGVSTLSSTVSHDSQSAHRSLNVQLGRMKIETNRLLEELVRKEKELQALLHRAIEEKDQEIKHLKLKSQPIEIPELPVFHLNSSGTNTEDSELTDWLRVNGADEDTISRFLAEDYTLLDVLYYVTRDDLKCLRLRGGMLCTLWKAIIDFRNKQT
Put plainly: Inhibition of ASK1 (unknown origin) assessed as residual activity at 100 nM by KINOMEscan analysis relative to control.

For experiment [2], the target named is T2, Megakaryocyte-associated tyrosine-protein kinase (Homo sapiens) (UniProt P42679).
T2 sequence (whole entry): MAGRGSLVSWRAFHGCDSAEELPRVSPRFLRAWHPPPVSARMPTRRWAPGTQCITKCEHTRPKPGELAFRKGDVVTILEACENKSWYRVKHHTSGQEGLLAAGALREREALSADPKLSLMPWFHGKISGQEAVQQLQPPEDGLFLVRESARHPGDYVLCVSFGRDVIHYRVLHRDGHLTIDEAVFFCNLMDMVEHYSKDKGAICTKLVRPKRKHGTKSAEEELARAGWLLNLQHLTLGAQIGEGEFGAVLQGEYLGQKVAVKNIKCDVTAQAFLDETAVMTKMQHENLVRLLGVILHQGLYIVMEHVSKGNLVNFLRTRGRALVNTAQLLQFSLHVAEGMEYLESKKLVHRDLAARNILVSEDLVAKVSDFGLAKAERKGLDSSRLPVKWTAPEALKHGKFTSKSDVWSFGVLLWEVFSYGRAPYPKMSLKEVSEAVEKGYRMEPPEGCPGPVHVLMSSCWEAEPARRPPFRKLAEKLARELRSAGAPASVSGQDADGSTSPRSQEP
As to the kind of experiment: Inhibition of CTK (unknown origin) assessed as residual activity at 100 nM by KINOMEscan analysis relative to control.

The test system of experiment [3] is Epidermal growth factor receptor (Homo sapiens), P00533 [G719S]. Put plainly: Inhibition of EGFR G719S mutant (unknown origin) assessed as residual activity at 100 nM by KINOMEscan analysis relative to control.
Experiment [4] addresses Serine/threonine-protein kinase N1 (Homo sapiens) (UniProt Q16512). Put plainly: Inhibition of PKN1 (unknown origin) assessed as residual activity at 100 nM by KINOMEscan analysis relative to control.

Sequence of Serine/threonine-protein kinase N1 (Homo sapiens) (Q16512 2-942 limits assumed): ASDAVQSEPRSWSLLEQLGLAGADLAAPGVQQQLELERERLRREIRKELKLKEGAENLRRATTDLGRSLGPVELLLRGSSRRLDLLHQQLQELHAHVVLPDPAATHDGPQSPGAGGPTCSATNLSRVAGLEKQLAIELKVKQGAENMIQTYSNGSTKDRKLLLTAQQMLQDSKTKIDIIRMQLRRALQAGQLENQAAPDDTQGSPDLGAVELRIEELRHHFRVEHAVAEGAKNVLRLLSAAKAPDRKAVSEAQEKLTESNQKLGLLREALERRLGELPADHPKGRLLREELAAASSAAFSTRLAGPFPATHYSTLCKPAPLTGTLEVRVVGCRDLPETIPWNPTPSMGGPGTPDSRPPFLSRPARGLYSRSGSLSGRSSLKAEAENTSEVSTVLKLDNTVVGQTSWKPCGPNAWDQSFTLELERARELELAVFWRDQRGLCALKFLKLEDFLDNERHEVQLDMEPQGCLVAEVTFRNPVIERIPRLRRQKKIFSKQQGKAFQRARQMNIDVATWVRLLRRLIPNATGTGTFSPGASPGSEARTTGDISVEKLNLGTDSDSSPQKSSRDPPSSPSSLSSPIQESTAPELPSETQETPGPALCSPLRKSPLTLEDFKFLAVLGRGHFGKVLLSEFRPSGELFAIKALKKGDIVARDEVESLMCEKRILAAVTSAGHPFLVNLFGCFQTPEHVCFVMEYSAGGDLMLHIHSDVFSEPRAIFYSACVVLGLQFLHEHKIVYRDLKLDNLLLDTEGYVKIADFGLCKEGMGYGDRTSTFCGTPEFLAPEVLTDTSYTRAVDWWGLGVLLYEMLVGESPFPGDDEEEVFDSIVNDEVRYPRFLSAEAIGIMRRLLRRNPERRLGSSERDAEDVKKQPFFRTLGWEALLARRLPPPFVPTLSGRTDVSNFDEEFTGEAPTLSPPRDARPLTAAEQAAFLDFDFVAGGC

Turning to `COc1cc2ncnc(N[C@H](C)c3cccc4ccccc34)c2cc1OC`, the Activity in experiment [1] came out at 70%; in experiment [2] it was 64%; in experiment [3] it was 96%; in experiment [4], 92%.

For the origin of these results see ChEMBL document CHEMBL5678818, “Discovery of potent SOS1 inhibitors that block RAS activation via disruption of the RAS-SOS1 interaction” (Proc Natl Acad Sci U S A, 2019).
